Assays:
lacR = lacR (Escherichia coli, UniProt P03023); details: cited from earlier work
lacR/O = details: eucaryotic cells; cited from earlier work
[1] = compared to Tc; cited from earlier work
HeLa cells = experiment: Growth behavior and morphology of HeLa cells in tetracycline-containing medium; format: cell-based, human
Experimental: The tTA inactivation studies were carried out with 1 μg of tetracycline per ml in the culture medium. […] Only at tetracycline concentrations well above 10 μg/ml were such changes observed upon prolonged incubation.

tTA = target: T1, tTA (Escherichia coli, UniProt P04483); experiment: Kinetics of tetracycline action on luciferase activity in X1 cells; format: cell-based, human; details: for Luciferase activity after addition of tetracycline, share of original value: tetracycline 1 μg/ml
T1 construct: LOCATION: 1..207; expressed in transfected cells
T1 sequence (P04483 whole entry, added parts left off): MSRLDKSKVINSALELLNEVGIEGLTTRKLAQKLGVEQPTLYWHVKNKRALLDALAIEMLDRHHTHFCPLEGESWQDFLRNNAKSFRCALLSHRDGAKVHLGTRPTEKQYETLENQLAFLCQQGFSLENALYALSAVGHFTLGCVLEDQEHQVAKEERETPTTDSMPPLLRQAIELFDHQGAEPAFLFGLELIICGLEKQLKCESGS
Experimental: FIG. 3B: Kinetics of tetracycline action. X1 cells were grown in 100 mm dishes to 80% confluency in the absence or presence (0.1 μg/ml) of tetracycline. At time 0, cells were washed with phosphate-buffered saline and split into smaller culture dishes ( 1/20th of the initial cultures per 35 mm dish). Half of the cultures remained in tetracycline-free medium (▪) and the other half were incubated in the presence of tetracycline (1 μg/ml; □). The X1 culture grown in tetracycline-containing medium was split in the same manner; one half was further incubated in the presence of tetracycline (●), whereas the other half was transferred to tetracycline-free medium (∘). At the times indicated, aliquots were harvested and examined for luciferase activity. The slight increase in luciferase activity monitored at 4 hr in the culture containing tetracycline (●) is reproducible and reflects luciferase induction during the washing step.
The time course of tetracycline action was analyzed in cultures grown in the absence or presence of tetracycline. At time 0, the antibiotic was added to the tetracycline-free cultures (final concentration, 1 μg/ml), whereas the tetracycline-containing cultures were rinsed and incubated in fresh antibiotic-free medium (FIG. 3 panel b). At various times, cells were harvested and analyzed for luciferase activity. […] A similarly rapid reduction of luciferase activity was observed when tetracycline was added to the fully active tetracycline-free system: within 8 hr activity dropped to about 10% and reached <2% of its original value after 12 hr.

Chain of lacR (P03023 whole entry): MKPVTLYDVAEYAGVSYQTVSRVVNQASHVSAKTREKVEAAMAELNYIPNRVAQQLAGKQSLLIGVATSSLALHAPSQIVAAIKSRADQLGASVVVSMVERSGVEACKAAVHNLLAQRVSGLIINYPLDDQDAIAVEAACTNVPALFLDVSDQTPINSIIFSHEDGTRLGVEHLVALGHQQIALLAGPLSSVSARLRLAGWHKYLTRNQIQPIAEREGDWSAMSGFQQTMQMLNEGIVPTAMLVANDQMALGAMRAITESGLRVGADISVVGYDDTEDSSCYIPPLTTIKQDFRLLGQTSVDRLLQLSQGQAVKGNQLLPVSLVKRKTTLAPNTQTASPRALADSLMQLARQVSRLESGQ

CC(C)S[C@@H]1O[C@H](CO)[C@H](O)[C@H](O)[C@H]1O [IPTG, isopropyl.β-D-thiogalactopyranoside]
ka of lacR for IPTG (lacR): 10^6 M^−1
Reduction of binding constant kRo by the inducer (lacR; lacR/O system): 1000 fold
Induction by IPTG (lacR/O): only moderate induction

Cc1c2c(c(O)c3c(O)cccc13)C(=O)[C@]1(O)C(=O)C(C(N)=O)=C(O)[C@@H](N(C)C)[C@@H]1C2 [anhydrotetracycline]
Antibiotic activity [1]: reduced antibiotic activity compared to Tc

CN(C)[C@H]1C(O)=C(C(N)=O)C(=O)[C@@]2(O)C(O)=C3C(=O)c4c(O)cccc4[C@@](C)(O)[C@H]3[C@H](O)[C@@H]12 [epioxytetracycline]
Antibiotic activity [1]: reduced antibiotic activity compared to Tc

CN(C)[C@@H]1C(O)=C(C(N)=O)C(=O)[C@@]2(O)C(O)=C3C(=O)c4c(O)cccc4[C@@](C)(O)[C@H]3C[C@@H]12 [tetracycline]
Tetracycline concentration at which changes in growth behavior or morphology were observed (HeLa cells; prolonged incubation): above 10 μg/ml
Change in growth behavior or morphology of HeLa cells (HeLa cells; tetracycline 0.1 μg/ml): no change in growth behavior or morphology
Luciferase activity after addition of tetracycline, share of original value (tTA; after 12 hr): < 2%
Luciferase activity after addition of tetracycline, share of original value (tTA; within 8 hr): about 10%
Luciferase activity after depletion of tetracycline, share of fully induced (steady-state) level (tTA; within 12 hr after shift to tetracycline-free medium): > 20%

Source: patent publication US6783756B2, “Methods for regulating gene expression” (Abbott GmbH & Co., KG, priority 1993, dated 2004)
